Measurements from ChEMBL document CHEMBL3046395, “Synthesis and pharmacological investigation of novel 3-(benzyl)-2-substituted amino-3H-quinazolin-4-ones as analgesic and anti-inflammatory agents” (Med Chem Res, 2008).

Columns and labels:
Rattus norvegicus [1] = assay: Anti-inflammatory activity in Rattus norvegicus (rat) assessed as inhibition of carrageenan-induced paw edema at 20 mg/kg, po measured at 30 min post carrageenan-challenge (reference value: 5.1 +/- 0.29%); type: functional; details: 0.5 h
Rattus norvegicus [2] = assay: Anti-inflammatory activity in Rattus norvegicus (rat) assessed as inhibition of carrageenan-induced paw edema at 10 mg/kg, po measured at 30 min post carrageenan-challenge (reference value: 5.1 +/- 0.29%); type: functional; details: 0.5 h
Mus musculus [3] = assay: Analgesic activity in Mus musculus Wistar albino (mouse) at 20 mg/kg, po after 3 hr by tail-flick test (reference value: 4 +/- 0.91%); type: functional
Mus musculus [4] = assay: Analgesic activity in Mus musculus Wistar albino (mouse) at 10 mg/kg, po after 3 hr by tail-flick test (reference value: 4 +/- 0.91%); type: functional
Mus musculus [5] = assay: Analgesic activity in Mus musculus Wistar albino (mouse) at 20 mg/kg, po after 2 hr by tail-flick test (reference value: 4 +/- 0.59%); type: functional
Mus musculus [6] = assay: Analgesic activity in Mus musculus Wistar albino (mouse) at 10 mg/kg, po after 2 hr by tail-flick test (reference value: 4 +/- 0.59%); type: functional
Mus musculus [7] = assay: Analgesic activity in Mus musculus Wistar albino (mouse) at 20 mg/kg, po after 1 hr by tail-flick test (reference value: 6 +/- 0.49%); type: functional
Mus musculus [8] = assay: Analgesic activity in Mus musculus Wistar albino (mouse) at 10 mg/kg, po after 1 hr by tail-flick test (reference value: 6 +/- 0.49%); type: functional
Mus musculus [9] = assay: Analgesic activity in Mus musculus Wistar albino (mouse) at 20 mg/kg, po after 30 min by tail-flick test (reference value: 2 +/- 0.35%); type: functional
Mus musculus [10] = assay: Analgesic activity in Mus musculus Wistar albino (mouse) at 10 mg/kg, po after 30 min by tail-flick test (reference value: 2 +/- 0.35%); type: functional
Rattus norvegicus [11] = assay: Gastrointestinal toxicity in Rattus norvegicus Wistar albino (rat) assessed as ulcer index at 20 mg/kg, ip administered QD for 3 days measured on day 4 (reference value: 0.15 +/- 0.32); type: organism-based; parameters: dose 20 mg/kg, route intraperitoneal; details: in vivo, 72 h
Rattus norvegicus [12] = assay: Anti-inflammatory activity in Rattus norvegicus (rat) assessed as inhibition of carrageenan-induced paw edema at 20 mg/kg, po measured at 3 hr post carrageenan-challenge (reference value: 3.2 +/- 0.93%); type: functional
Rattus norvegicus [13] = assay: Anti-inflammatory activity in Rattus norvegicus (rat) assessed as inhibition of carrageenan-induced paw edema at 10 mg/kg, po measured at 3 hr post carrageenan-challenge (reference value: 3.2 +/- 0.93%); type: functional
Rattus norvegicus [14] = assay: Anti-inflammatory activity in Rattus norvegicus (rat) assessed as inhibition of carrageenan-induced paw edema at 20 mg/kg, po measured at 2 hr post carrageenan-challenge (reference value: 5.7+/- 0.32%); type: functional
Rattus norvegicus [15] = assay: Anti-inflammatory activity in Rattus norvegicus (rat) assessed as inhibition of carrageenan-induced paw edema at 10 mg/kg, po measured at 2 hr post carrageenan-challenge (reference value: 5.7+/- 0.32%); type: functional
Rattus norvegicus [16] = assay: Anti-inflammatory activity in Rattus norvegicus (rat) assessed as inhibition of carrageenan-induced paw edema at 20 mg/kg, po measured at 1 hr post carrageenan-challenge (reference value: 6.1 +/- 0.27%); type: functional
Rattus norvegicus [17] = assay: Anti-inflammatory activity in Rattus norvegicus (rat) assessed as inhibition of carrageenan-induced paw edema at 10 mg/kg, po measured at 1 hr post carrageenan-challenge (reference value: 6.1 +/- 0.27%); type: functional

SMILES | inhibition in vivo at 20 mg/kg (Rattus norvegicus [1]) [%] | inhibition in vivo at 10 mg/kg (Rattus norvegicus [2]) [%] | Activity (Mus musculus [3]) [%] | Activity (Mus musculus [4]) [%] | Activity (Mus musculus [5]) [%] | Activity (Mus musculus [6]) [%] | Activity (Mus musculus [7]) [%] | Activity (Mus musculus [8]) [%] | Activity (Mus musculus [9]) [%] | Activity (Mus musculus [10]) [%] | UI (Rattus norvegicus [11]) | inhibition in vivo at 20 mg/kg (Rattus norvegicus [12]) [%] | inhibition in vivo at 10 mg/kg (Rattus norvegicus [13]) [%] | inhibition in vivo at 20 mg/kg (Rattus norvegicus [14]) [%] | inhibition in vivo at 10 mg/kg (Rattus norvegicus [15]) [%] | inhibition in vivo at 20 mg/kg (Rattus norvegicus [16]) [%] | inhibition in vivo at 10 mg/kg (Rattus norvegicus [17]) [%]
O=c1c2ccccc2nc(N/N=C/c2ccccc2[N+](=O)[O-])n1Cc1ccccc1 | 43 | 30 | 38 | 32 | 57 | 46 | 56 | 44 | 49 | 37 | 0.87 | 28 | 21 | 47 | 38 | 43 | 36
O=c1c2ccccc2nc(N/N=C/c2ccc([N+](=O)[O-])cc2)n1Cc1ccccc1 | 42 | 31 | 39 | 34 | 54 | 42 | 48 | 42 | 46 | 38 | 0.82 | 31 | 24 | 49 | 37 | 45 | 31
COc1ccc(/C=N/Nc2nc3ccccc3c(=O)n2Cc2ccccc2)cc1 | 35 | 28 | 37 | 32 | 56 | 44 | 52 | 40 | 49 | 39 | 0.83 | 30 | 25 | 44 | 37 | 40 | 30
Cc1ccccc1/C=N/Nc1nc2ccccc2c(=O)n1Cc1ccccc1 | 45 | 39 | 39 | 32 | 59 | 48 | 58 | 48 | 52 | 44 | 0.66 | 36 | 28 | 51 | 45 | 47 | 42
Cc1ccc(/C=N/Nc2nc3ccccc3c(=O)n2Cc2ccccc2)cc1 | 46 | 38 | 40 | 35 | 61 | 54 | 59 | 49 | 58 | 47 | 0.65 | 38 | 29 | 53 | 42 | 49 | 38
O=c1c2ccccc2nc(NN=C(c2ccccc2)c2ccccc2)n1Cc1ccccc1 | 47 | 36 | 41 | 33 | 59 | 49 | 58 | 49 | 55 | 46 | 0.63 | 35 | 27 | 52 | 43 | 50 | 41
CCN(CC)C(=S)Nn1c(-c2ccccc2)nc2ccccc2c1=O | – | – | – | – | 58 | 44 | – | – | – | – | – | – | – | 53 | 38 | – | –
Cc1nc2ccccc2c(=O)n1NC(=S)n1cccc1 | – | – | – | – | 65 | 50 | – | – | – | – | – | – | – | 60 | 44 | – | –
CCN(CC)C(=S)Nn1c(SC)nc2ccccc2c1=O | – | – | – | – | 67 | 56 | – | – | – | – | – | – | – | 62 | 40 | – | –
O=c1c2ccccc2nc(NN=C2CCCCC2)n1Cc1ccccc1 | 45 | 36 | 41 | 34 | 61 | 54 | 58 | 46 | 51 | 42 | 0.59 | 32 | 25 | 58 | 45 | 52 | 38
C/C(=N\Nc1nc2ccccc2c(=O)n1Cc1ccccc1)c1ccccc1 | 48 | 40 | 37 | 30 | 69 | 57 | 62 | 47 | 57 | 45 | 0.6 | 33 | 27 | 58 | 46 | 53 | 41
O=C1Nc2ccccc2/C1=N\Nc1nc2ccccc2c(=O)n1Cc1ccccc1 | 40 | 36 | 35 | 30 | 61 | 48 | 57 | 46 | 52 | 45 | 0.62 | 32 | 25 | 51 | 42 | 45 | 38
O=c1c2ccccc2nc(N/N=C/c2ccccc2)n1Cc1ccccc1 | 41 | 35 | 41 | 31 | 59 | 48 | 59 | 48 | 51 | 45 | 0.64 | 35 | 27 | 47 | 40 | 45 | 39
O=c1c2ccccc2nc(N/N=C/c2ccccc2Cl)n1Cc1ccccc1 | 38 | 30 | 35 | 29 | 53 | 41 | 49 | 37 | 46 | 34 | 0.86 | 31 | 26 | 42 | 35 | 38 | 32
O=c1c2ccccc2nc(N/N=C/c2ccc(Cl)cc2)n1Cc1ccccc1 | 40 | 34 | 36 | 30 | 54 | 47 | 51 | 36 | 49 | 38 | 0.89 | 29 | 23 | 49 | 36 | 44 | 36
CC(=O)Oc1ccccc1C(=O)O [ASPIRIN] | – | – | – | – | – | – | – | – | – | – | 1.73 | – | – | – | – | – | –
